Consider 6 molecules from ChEMBL document CHEMBL2010678, “Tigliane diterpene esters with IFN γ-inducing activity from the leaves of Aleurites fordii” (Bioorg Med Chem Lett, 2012).

Each structure is given as a SMILES string. The source made the active and inactive calls. The rule behind the calls is not given here.

Assay type in all cases: functional, cell-based
Assay [1] has as its system NK92. In words: Immunomodulatory activity in human NK92 cells assessed as induction of IFNgamma after 12 hrs by ELISA.
Assay [2] relates to NK92. In words: Immunomodulatory activity in human NK92 cells assessed as induction of IFNgamma at 40 nM after 12 hrs by ELISA.
Assay [3] has as its system NK92. In words: Immunomodulatory activity in human NK92 cells assessed as induction of IFNgamma at 4 nM after 12 hrs by ELISA.

As to `CCCCCCCCCCCCCCCC(=O)O[C@@H]1[C@@H](C)[C@@]2(O)[C@@H](C(=O)C(CO)=C[C@]3(O)C(=O)C(C)=C[C@@H]23)[C@@H]2C(C)(C)[C@]12OC(C)=O`, in the assay with NK92 [1], the outcome was inactive.

Consider `CCCCCCCCCCCCCCCC(=O)O[C@@H]1[C@@H](C)[C@]2(O)[C@@H]3C=C(C)C(=O)[C@@H]3CC(CO)=C[C@H]2[C@H]2[C@]1(OC(C)=O)[C@@]2(C)CO`, for which the outcome in the assay on NK92 [1] was inactive.

Take `CCCCCCCCCCCCCC(=O)O[C@@H]1[C@@H](C)[C@@]2(O)[C@@H](C=C(CO)C[C@]3(O)C(=O)C(C)=C[C@@H]23)[C@@H]2C(C)(C)[C@]12OC(C)=O`: the result in the assay on NK92 [1] was Active.

Turning to `CCCCCCCCCCCCCCCC(=O)O[C@@H]1[C@@H](C)[C@@]2(O)[C@@H](C(=O)C(CO)=C[C@]3(O)C(=O)C(C)=C[C@@H]23)[C@H]2[C@]1(OC(C)=O)[C@@]2(C)CO`, the result in the assay with NK92 [2] was Active.

For `CCCCCCCCCCCCCCCC(=O)O[C@@H]1[C@@H](C)[C@@]2(O)[C@@H](C=C(CO)C[C@]3(O)C(=O)C(C)=C[C@@H]23)[C@@H]2C(C)(C)[C@]12OC(C)=O`, in the assay on NK92 [3], the outcome was Active.

Take `CCCCCCCCCCCCCCCC(=O)O[C@@H]1[C@@H](C)[C@@]2(O)[C@@H](C=C(CO)C[C@]3(O)C(=O)C(C)=C[C@@H]23)[C@H]2[C@]1(OC(C)=O)[C@@]2(C)CO`: the outcome with NK92 [3] was Active.
